These results are taken from ChEMBL document CHEMBL1139731, “Identification of non-furan containing A2A antagonists using database mining and molecular similarity approaches” (Bioorg Med Chem Lett, 2006).

One experiment concerns the target Adenosine receptor A2a (Homo sapiens, UniProt P29274). In words: Displacement of [3H]CGS21680 from human recombinant adenosine A2A receptor. Background: In a radioligand displacement assay an active substance lowers the binding of a labelled ligand.
Another experiment has as its target T1, Adenosine receptor A1 (Homo sapiens, UniProt P30542).
T1 sequence (P30542 whole entry): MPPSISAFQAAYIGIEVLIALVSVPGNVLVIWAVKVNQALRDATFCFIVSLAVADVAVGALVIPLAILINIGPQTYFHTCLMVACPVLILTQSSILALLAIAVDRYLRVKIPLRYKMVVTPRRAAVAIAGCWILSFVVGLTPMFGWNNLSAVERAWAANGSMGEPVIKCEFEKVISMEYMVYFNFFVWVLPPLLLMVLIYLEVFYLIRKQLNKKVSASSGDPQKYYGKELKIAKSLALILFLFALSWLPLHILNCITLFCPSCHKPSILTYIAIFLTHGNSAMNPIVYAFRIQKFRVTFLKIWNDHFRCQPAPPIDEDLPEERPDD
Put plainly: Displacement of [3H]DPCPX from recombinant adenosine A1 receptor.

Sequence of Adenosine receptor A2a (P29274 whole entry): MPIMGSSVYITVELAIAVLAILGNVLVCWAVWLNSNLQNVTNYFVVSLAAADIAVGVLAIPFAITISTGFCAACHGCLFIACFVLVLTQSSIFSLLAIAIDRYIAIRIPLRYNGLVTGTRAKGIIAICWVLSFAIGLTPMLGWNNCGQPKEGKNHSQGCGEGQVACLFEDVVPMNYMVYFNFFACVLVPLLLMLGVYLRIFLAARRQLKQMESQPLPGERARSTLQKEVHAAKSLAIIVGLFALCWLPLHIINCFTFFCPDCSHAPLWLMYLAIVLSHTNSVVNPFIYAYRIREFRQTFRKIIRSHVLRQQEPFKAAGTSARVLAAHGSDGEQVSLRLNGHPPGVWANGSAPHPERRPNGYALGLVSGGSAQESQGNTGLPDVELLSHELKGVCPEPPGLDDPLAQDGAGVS

One may read the Ki as the equilibrium dissociation constant of an inhibitor or competing ligand from its target. In the case of `Fc1ccc(CNc2nc(-c3ccccc3)cc(C(F)(F)F)n2)cc1`, the figures for the Ki at Adenosine receptor A2a and at Adenosine receptor A1 were 287 nM (antagonist) and over 10000 nM, respectively.

As to `Fc1ccc(CNc2nc(-c3ccc(Cl)cc3)cc(C(F)(F)F)n2)cc1`, the Ki is 454 nM (antagonist) at Adenosine receptor A2a and over 10000 nM at Adenosine receptor A1.

For `N#Cc1c(N)nc2c(c1-c1ccc(F)cc1)CCC2`, the Ki at Adenosine receptor A2a was 232 nM (antagonist).

For the compound `N#Cc1c(-c2ccc(F)cc2)cc(C2CC2)nc1N`, the Ki on Adenosine receptor A2a is 106 nM (antagonist); at Adenosine receptor A1, 865 nM (antagonist).

In the case of `CSc1nc(N)nc(-c2cccc(-c3ccc4[nH]ccc4c3)c2)n1`, the Ki at Adenosine receptor A2a is 31 nM (antagonist); on Adenosine receptor A1 it was 218 nM (antagonist).

Consider `COc1cccc(-c2cc(C(F)(F)F)nc(NCc3ccc(F)cc3)n2)c1`, for which the inhibitory constant (Ki) was 290 nM (antagonist) at Adenosine receptor A2a and over 10000 nM at Adenosine receptor A1.

As to `N#Cc1c(-c2ccc(Cl)cc2)cc(-c2ccccc2Cl)nc1N`, the values for the Ki at Adenosine receptor A2a and on Adenosine receptor A1 were 403 nM (antagonist) and 1740 nM (antagonist), respectively.

As for `COc1cc(-c2cc(-c3ccc(O)cc3)nc(N)c2C#N)ccc1O`, the Ki on Adenosine receptor A2a was 151 nM (antagonist); on Adenosine receptor A1, 94 nM (antagonist).

Regarding `N#Cc1c(-c2ccc(F)cc2)cc(-c2ccccc2)nc1N`, the Ki at Adenosine receptor A2a is given as 87 nM (antagonist); at Adenosine receptor A1 it was 59 nM (antagonist).

For `Fc1ccc(CNc2nc(-c3cccs3)cc(C(F)(F)F)n2)cc1`, the Ki at Adenosine receptor A2a was 287 nM (antagonist); at Adenosine receptor A1, over 10000 nM.

As to `COc1ccc(-c2cccc(-c3nc(N)nc(SC)n3)c2)cn1`, the figures for the inhibition constant (Ki) at Adenosine receptor A2a and on Adenosine receptor A1 were 23 nM (antagonist) and 840 nM (antagonist), respectively.

With `N#Cc1c(-c2ccc(Cl)cc2)cc(-c2ccccc2)nc1N`, the Ki at Adenosine receptor A2a is recorded as 201 nM (antagonist); at Adenosine receptor A1, 192 nM (antagonist).

Take `CCOc1cc(-c2cc(-c3ccc(O)cc3)nc(N)c2C#N)ccc1O`: the Ki on Adenosine receptor A2a is recorded as 267 nM (antagonist); at Adenosine receptor A1 it was 42 nM (antagonist).

`N#Cc1c(-c2ccc(Cl)c(Cl)c2)cc(-c2cccnc2)nc1N`: the Ki on Adenosine receptor A2a is 210 nM (antagonist); at Adenosine receptor A1, over 10000 nM.

Take `Cc1ccc(-c2cc(-c3ccccc3)nc(N)c2C#N)cc1`: the Ki at Adenosine receptor A2a is 118 nM (antagonist); at Adenosine receptor A1, 274 nM (antagonist).

`N#Cc1c(-c2ccccc2Cl)cc(-c2ccccc2)nc1N`: the Ki at Adenosine receptor A2a is listed as 89 nM (antagonist); on Adenosine receptor A1 it was 239 nM (antagonist).

For `CCSc1nc(N)nc(-c2ccccc2)n1`, the values for the Ki at Adenosine receptor A2a and on Adenosine receptor A1 were 5 nM (antagonist) and 67 nM (antagonist), respectively.
